For 15 compounds, EC50 and Emax results are on record in patent US20240208992A1, “MACROCYCLES AS CFTR MODULATORS” (Idorsia Pharmaceuticals Ltd, priority 2021, published 2024).

This experiment addresses human F508del-CFTR (Homo sapiens, UniProt P13569, DEL508-508). In words: F508del-CFTR cell surface expression (corrector activity), DiscoveRx ß-galactosidase complementation chemiluminescence assay in recombinant U2OS cell line.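 On all read-outs here: U2OS cells co-expressing ProLink-tagged F508del-CFTR and a membrane-anchored enzyme acceptor, where more surface CFTR restores β-galactosidase activity measured by chemiluminescence.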 As to conditions: U2OS cell line, 16h compound incubation; for EC50: EC50, F508del-CFTR cell surface expression, geomean values; for Emax: U2OS, in relation to the Emax of the corrector lumacaftor (=100%), arithmetic mean values.

Molecules are shown by their SMILES.

human F508del-CFTR, sequence (P13569 with tags, fused parts or gaps DEL508-508): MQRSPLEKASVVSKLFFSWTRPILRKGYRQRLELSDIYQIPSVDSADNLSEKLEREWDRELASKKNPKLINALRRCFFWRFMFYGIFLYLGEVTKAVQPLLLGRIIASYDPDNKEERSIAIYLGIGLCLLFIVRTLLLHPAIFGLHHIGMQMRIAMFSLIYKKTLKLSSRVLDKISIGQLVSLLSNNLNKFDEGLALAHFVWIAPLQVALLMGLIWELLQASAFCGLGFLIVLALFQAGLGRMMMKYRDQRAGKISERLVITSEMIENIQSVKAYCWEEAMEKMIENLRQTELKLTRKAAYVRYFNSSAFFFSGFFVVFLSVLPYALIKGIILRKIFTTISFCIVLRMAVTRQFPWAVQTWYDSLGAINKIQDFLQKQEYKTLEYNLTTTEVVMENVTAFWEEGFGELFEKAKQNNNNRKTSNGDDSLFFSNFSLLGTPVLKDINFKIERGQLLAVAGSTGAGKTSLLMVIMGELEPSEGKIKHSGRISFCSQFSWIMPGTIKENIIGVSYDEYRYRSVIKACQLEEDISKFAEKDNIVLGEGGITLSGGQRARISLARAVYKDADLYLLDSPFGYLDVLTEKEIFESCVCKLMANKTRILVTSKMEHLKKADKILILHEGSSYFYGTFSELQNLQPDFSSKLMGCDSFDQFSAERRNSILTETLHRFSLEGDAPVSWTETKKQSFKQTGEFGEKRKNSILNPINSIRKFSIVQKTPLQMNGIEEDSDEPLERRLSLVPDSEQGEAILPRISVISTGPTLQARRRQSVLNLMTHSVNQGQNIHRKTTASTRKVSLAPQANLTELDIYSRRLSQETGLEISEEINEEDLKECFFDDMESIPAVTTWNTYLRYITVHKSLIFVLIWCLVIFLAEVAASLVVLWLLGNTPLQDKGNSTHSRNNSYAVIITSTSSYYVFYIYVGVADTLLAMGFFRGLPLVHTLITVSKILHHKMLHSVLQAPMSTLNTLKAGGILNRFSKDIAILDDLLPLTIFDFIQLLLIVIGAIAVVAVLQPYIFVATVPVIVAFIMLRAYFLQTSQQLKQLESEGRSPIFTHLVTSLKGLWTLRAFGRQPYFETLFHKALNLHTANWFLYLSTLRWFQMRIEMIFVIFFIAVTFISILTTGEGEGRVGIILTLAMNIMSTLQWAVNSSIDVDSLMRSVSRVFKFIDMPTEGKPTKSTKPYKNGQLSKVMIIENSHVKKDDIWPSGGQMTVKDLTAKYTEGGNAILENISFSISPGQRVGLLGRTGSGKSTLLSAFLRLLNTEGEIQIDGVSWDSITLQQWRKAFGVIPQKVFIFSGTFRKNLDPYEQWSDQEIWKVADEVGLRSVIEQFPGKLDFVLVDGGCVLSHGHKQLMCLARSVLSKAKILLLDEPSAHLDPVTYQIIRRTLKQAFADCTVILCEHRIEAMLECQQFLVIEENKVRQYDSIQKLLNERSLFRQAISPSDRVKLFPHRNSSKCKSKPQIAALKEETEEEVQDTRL

With `COc1cccc2c1C(=O)N[C@H](C(=O)NCCc1ccc3c(c1)OCO3)CC(=O)N(C)[C@@H](CC1CCCCC1)C(=O)N(C[C@@H]1CCCCO1)CC(=O)N[C@H](Cc1ccccc1)CO2` [Example 309, (3R,9S,13S)-N-(2-(benzo[d][1,3]dioxol-5-yl)ethyl)-3-benzyl-9-(cyclohexylmethyl)-16-methoxy-10-methyl-5,8,11,15-tetraoxo-7-(((S)-tetrahydro-2H-pyran-2-yl)methyl)-2,3,4,5,6,7,8,9,10,11,12,13,14,15-tetradecahydrobenzo[p][1]oxa[4,7,10,14]tetraazacycloheptadecine-13-carboxamide], the 50% effective concentration (EC50) came to 456 nM and the Emax came out at 113%.

On to `COc1cccc(CCNC(=O)[C@@H]2CC(=O)N(C)[C@@H](CC(C)C)C(=O)N(C[C@H]3CCCCO3)CC(=O)N[C@H](Cc3ccccc3)COc3cccc(OC)c3C(=O)N2)c1` [Example 311, (3R,9S,13S)-3-benzyl-9-isobutyl-16-methoxy-N-(3-methoxyphenethyl)-10-methyl-5,8,11,15-tetraoxo-7-(((R)-tetrahydro-2H-pyran-2-yl)methyl)-2,3,4,5,6,7,8,9,10,11,12,13,14,15-tetradecahydrobenzo[p][1]oxa[4,7,10,14]tetraazacycloheptadecine-13-carboxamide], for which the concentration for a half-maximal effect (EC50) was 454 nM and the Emax was found to be 127%.

On to `COc1cccc(CCNC(=O)[C@@H]2CC(=O)N(C)[C@@H](CC(C)C)C(=O)N(C[C@@H]3CCCCO3)CC(=O)N[C@H](Cc3ccccc3)COc3cccc(OC)c3C(=O)N2)c1` [Example 312, (3R,9S,13S)-3-benzyl-9-isobutyl-16-methoxy-N-(3-methoxyphenethyl)-10-methyl-5,8,11,15-tetraoxo-7-(((S)-tetrahydro-2H-pyran-2-yl)methyl)-2,3,4,5,6,7,8,9,10,11,12,13,14,15-tetradecahydrobenzo[p][1]oxa[4,7,10,14]tetraazacycloheptadecine-13-carboxamide], for which the EC50 stood at 727 nM and the maximum response (Emax) was 111%.

For the compound `COc1cccc(CCNC(=O)[C@@H]2CC(=O)N(C)[C@@H](CC3CCCC3)C(=O)N(C[C@H]3CCCCO3)CC(=O)N[C@H](Cc3ccccc3)COc3cccc(OC)c3C(=O)N2)c1` [Example 313, (3R,9S,13S)-3-benzyl-9-(cyclopentylmethyl)-16-methoxy-N-(3-methoxyphenethyl)-10-methyl-5,8,11,15-tetraoxo-7-(((R)-tetrahydro-2H-pyran-2-yl)methyl)-2,3,4,5,6,7,8,9,10,11,12,13,14,15-tetradecahydrobenzo[p][1]oxa[4,7,10,14]tetraazacycloheptadecine-13-carboxamide], the EC50 came out at 313 nM and the maximal effect (Emax) was found to be 119%.

Consider `COc1cccc(CCNC(=O)[C@@H]2CC(=O)N(C)[C@@H](CC3CCCCC3)C(=O)N(C[C@@H]3CCCCO3)CC(=O)N[C@H](Cc3ccccc3)COc3cccc(OC)c3C(=O)N2)c1` [Example 314, (3R,9S,13S)-3-benzyl-9-(cyclohexylmethyl)-16-methoxy-N-(3-methoxyphenethyl)-10-methyl-5,8,11,15-tetraoxo-7-(((S)-tetrahydro-2H-pyran-2-yl)methyl)-2,3,4,5,6,7,8,9,10,11,12,13,14,15-tetradecahydrobenzo[p][1]oxa[4,7,10,14]tetraazacycloheptadecine-13-carboxamide], for which the EC50 came out at 469 nM and the Emax turned out to be 111%.

In the case of `COc1cccc(CCNC(=O)[C@@H]2CC(=O)N(C)[C@@H](CC(C)C)C(=O)N(CCC3CCCCC3)CC(=O)N[C@H](Cc3ccccc3)COc3cnc4ccccc4c3C(=O)N2)c1` [Example 315, (3S,7S,13R)-13-benzyl-9-(2-cyclohexylethyl)-7-isobutyl-N-(3-methoxyphenethyl)-6-methyl-1,5,8,11-tetraoxo-1,2,3,4,5,6,7,8,9,10,11,12,13,14-tetradecahydro-[1]oxa[4,7,10,14]tetraazacycloheptadecino[17,16-c]quinoline-3-carboxamide], the concentration giving a half-maximal response (EC50) turned out to be 115 nM and the maximal response (Emax) is 349%.

Turning to `[2H]C([2H])([2H])Oc1cccc(CCNC(=O)[C@@H]2CC(=O)N(C)[C@@H](CC(C)C)C(=O)N(CCC3CCCCC3)CC(=O)N[C@H](Cc3ccccc3)COc3cnc4ccccc4c3C(=O)N2)c1` [Example 316, (3S,7S,13R)-13-benzyl-9-(2-cyclohexylethyl)-7-isobutyl-N-(3-(methoxy-d3)phenethyl)-6-methyl-1,5,8,11-tetraoxo-1,2,3,4,5,6,7,8,9,10,11,12,13,14-tetradecahydro-[1]oxa[4,7,10,14]tetraazacycloheptadecino[17,16-c]quinoline-3-carboxamide], the EC50 was found to be 55 nM and the maximal response (Emax) came to 343%.

On to `COc1cccc(CCNC(=O)[C@@H]2CC(=O)N(C)[C@@H](CC(C)C)C(=O)N(C)CC(=O)N[C@H](Cc3ccccc3)COc3cccc(OC(F)(F)F)c3C(=O)N2)c1` [Example 317, (3R,9S,13S)-3-benzyl-9-isobutyl-N-(3-methoxyphenethyl)-7,10-dimethyl-5,8,11,15-tetraoxo-16-(trifluoromethoxy)-2,3,4,5,6,7,8,9,10,11,12,13,14,15-tetradecahydrobenzo[p][1]oxa[4,7,10,14]tetraazacycloheptadecine-13-carboxamide], for which the EC50 stood at 661 nM and the Emax was found to be 89%.

In the case of `CC(C)C[C@H]1C(=O)N(C)CC(=O)N[C@H](Cc2ccccc2)COc2cnc3ccccc3c2C(=O)N[C@H](C(=O)NCCc2ccc3c(c2)OCO3)CC(=O)N1C` [Example 318, (3S,7S,13R)-N-(2-(benzo[d][1,3]dioxol-5-yl)ethyl)-13-benzyl-7-isobutyl-6,9-dimethyl-1,5,8,11-tetraoxo-1,2,3,4,5,6,7,8,9,10,11,12,13,14-tetradecahydro-[1]oxa[4,7,10,14]tetraazacycloheptadecino[17,16-c]quinoline-3-carboxamide], the half-maximal effective concentration (EC50) amounted to 679 nM and the Emax came out at 295%.

As to `COc1cccc(CCNC(=O)[C@@H]2CC(=O)N(C)[C@@H](CC(C)C)C(=O)N(C)CC(=O)N[C@H](Cc3ccccc3)COc3cnc4ccccc4c3C(=O)N2)c1` [Example 319, (3S,7S,13R)-13-benzyl-7-isobutyl-N-(3-methoxyphenethyl)-6,9-dimethyl-1,5,8,11-tetraoxo-1,2,3,4,5,6,7,8,9,10,11,12,13,14-tetradecahydro-[1]oxa[4,7,10,14]tetraazacycloheptadecino[17,16-c]quinoline-3-carboxamide], the concentration giving a half-maximal response (EC50) was found to be 574 nM and the maximal effect (Emax) turned out to be 296%.

In the case of `[2H]C([2H])([2H])Oc1cccc(CCNC(=O)[C@@H]2CC(=O)N(C)[C@@H](CC(C)C)C(=O)N(C)CC(=O)N[C@H](Cc3ccccc3)COc3cnc4ccccc4c3C(=O)N2)c1` [Example 320, (3S,7S,13R)-13-benzyl-7-isobutyl-N-(3-(methoxy-d3)phenethyl)-6,9-dimethyl-1,5,8,11-tetraoxo-1,2,3,4,5,6,7,8,9,10,11,12,13,14-tetradecahydro-[1]oxa[4,7,10,14]tetraazacycloheptadecino[17,16-c]quinoline-3-carboxamide], the concentration for a half-maximal effect (EC50) is 363 nM and the maximum response (Emax) was 297%.

Take `CC(C)C[C@H]1C(=O)N(C)CC(=O)N[C@H](Cc2ccccc2)COc2ccc3c(c2C(=O)N[C@H](C(=O)NCCc2ccc4c(c2)OCO4)CC(=O)N1C)OCO3` [Example 321, (8R,14S,18S)-N-(2-(benzo[d][1,3]dioxol-5-yl)ethyl)-8-benzyl-14-isobutyl-12,15-dimethyl-10,13,16,20-tetraoxo-7,8,9,10,11,12,13,14,15,16,17,18,19,20-tetradecahydro-[1,3]dioxolo[4′,5′:5,6]benzo[1,2-p][1]oxa[4,7,10,14]tetraazacycloheptadecine-18-carboxamide]: the concentration for a half-maximal effect (EC50) stood at 816 nM and the Emax came to 266%.

As to `[2H]C1([2H])Oc2ccc3c(c2O1)C(=O)N[C@H](C(=O)NCCc1ccc2c(c1)OCO2)CC(=O)N(C)[C@@H](CC(C)C)C(=O)N(C)CC(=O)N[C@H](Cc1ccccc1)CO3` [Example 322, (8R,14S,18S)-N-(2-(benzo[d][1,3]dioxol-5-yl)ethyl)-8-benzyl-14-isobutyl-12,15-dimethyl-10,13,16,20-tetraoxo-7,8,9,10,11,12,13,14,15,16,17,18,19,20-tetradecahydro-[1,3]dioxolo[4′,5′:5,6]benzo[1,2-p][1]oxa[4,7,10,14]tetraazacycloheptadecine-2,2-d2-18-carboxamide], the half-maximal effective concentration (EC50) is 504 nM and the Emax was determined as 197%.

As for `COc1cccc(CCNC(=O)[C@@H]2CC(=O)N(C)[C@@H](CC(C)C)C(=O)N(C)CC(=O)N[C@H](Cc3ccccc3)COc3ccc4c(c3C(=O)N2)OCO4)c1` [Example 323, (8R,14S,18S)-8-benzyl-14-isobutyl-N-(3-methoxyphenethyl)-12,15-dimethyl-10,13,16,20-tetraoxo-7,8,9,10,11,12,13,14,15,16,17,18,19,20-tetradecahydro-[1,3]dioxolo[4′,5′:5,6]benzo[1,2-p][1]oxa[4,7,10,14]tetraazacycloheptadecine-18-carboxamide], the EC50 is 742 nM and the Emax stood at 258%.

With `[2H]C1([2H])Oc2ccc3c(c2O1)C(=O)N[C@H](C(=O)NCCc1cccc(OC)c1)CC(=O)N(C)[C@@H](CC(C)C)C(=O)N(C)CC(=O)N[C@H](Cc1ccccc1)CO3` [Example 324, (8R,14S,18S)-8-benzyl-14-isobutyl-N-(3-methoxyphenethyl)-12,15-dimethyl-10,13,16,20-tetraoxo-7,8,9,10,11,12,13,14,15,16,17,18,19,20-tetradecahydro-[1,3]dioxolo[4′,5′:5,6]benzo[1,2-p][1]oxa[4,7,10,14]tetraazacycloheptadecine-2,2-d2-18-carboxamide], the 50% effective concentration (EC50) came to 666 nM and the Emax was determined as 247%.
